Assay results from PubChem BioAssay (NCI).
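Growth conditions: 96-well plates. Treatment: test compound, 48 hours, 5 concentrations. Analysis: linear interpolation between bracketing concentrations; unreached endpoints set to highest concentration. At the GI50, growth is halved. TGI: concentration producing complete growth inhibition.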

Experiments:
Test in all cases: inhibition of tumour cell growth, NCI panel, 48 h
OVCAR-3 ovarian = system: OVCAR-3 ovarian
NCI/ADR-RES ovarian = system: NCI/ADR-RES ovarian
KM12 colon = system: KM12 colon
UACC-257 melanoma = system: UACC-257 melanoma
MDA-MB-435 = system: MDA-MB-435
HOP-62 NSCLC = system: HOP-62 NSCLC
SK-OV-3 ovarian = system: SK-OV-3 ovarian
DU-145 prostate = system: DU-145 prostate
HCC-2998 colon = system: HCC-2998 colon
SF-295 CNS = system: SF-295 CNS
OVCAR-4 ovarian = system: OVCAR-4 ovarian
HCT-15 colon = system: HCT-15 colon
SF-539 CNS = system: SF-539 CNS
SF-268 CNS = system: SF-268 CNS
HOP-92 NSCLC = system: HOP-92 NSCLC
OVCAR-5 ovarian = system: OVCAR-5 ovarian
HT29 colon = system: HT29 colon
MALME-3M melanoma = system: MALME-3M melanoma
T-47D breast = system: T-47D breast
IGROV1 ovarian = system: IGROV1 ovarian
BT-549 breast = system: BT-549 breast
RPMI-8226 leukemia = system: RPMI-8226 leukemia
SW-620 colon = system: SW-620 colon
TK-10 renal = system: TK-10 renal
SR leukemia = system: SR leukemia
NCI-H226 lung = system: NCI-H226 lung
ACHN renal = system: ACHN renal
UACC-62 melanoma = system: UACC-62 melanoma

Q: Which TGI (OVCAR-3 ovarian) does the source give for `Cc1ncn(-c2ccc(/C=N/Nc3ccnc4cc(Cl)ccc34)cc2)c1C` here?
A: Its TGI is 3.75 µM.

Q: And the GI50 (NCI/ADR-RES ovarian)?
A: Its GI50 is 2.07 µM.

Q: What about the TGI (NCI/ADR-RES ovarian) of the same molecule?
A: Its TGI is 5.04 µM.

Q: What about the GI50 (KM12 colon) of the same molecule?
A: The GI50 was 2.38 µM.

Q: What about the TGI (KM12 colon) of the same molecule?
A: Its TGI is 5.79 µM.

Q: What about the GI50 (UACC-257 melanoma) of the same molecule?
A: The GI50 was 1.7 µM.

Q: And the TGI (UACC-257 melanoma)?
A: Its TGI is 3.11 µM.

Q: What about the GI50 (MDA-MB-435) of the same molecule?
A: Its GI50 is 1.65 µM.

Q: And the TGI (MDA-MB-435)?
A: Its TGI is 3.05 µM.

Q: And the GI50 (HOP-62 NSCLC)?
A: The GI50 was 1.74 µM.

Q: What about the TGI (HOP-62 NSCLC) of the same molecule?
A: The TGI was 3.2 µM.

Q: What about the GI50 (SK-OV-3 ovarian) of the same molecule?
A: The GI50 was 1.8 µM.

Q: And the TGI (SK-OV-3 ovarian)?
A: The TGI was 3.36 µM.

Q: And the GI50 (DU-145 prostate)?
A: Its GI50 is 1.88 µM.

Q: And the TGI (DU-145 prostate)?
A: The TGI was 3.7 µM.

Q: What about the GI50 (HCC-2998 colon) of the same molecule?
A: The GI50 was 1.92 µM.

Q: What about the TGI (HCC-2998 colon) of the same molecule?
A: Its TGI is 3.52 µM.

Q: And the GI50 (SF-295 CNS)?
A: The GI50 was 1.88 µM.

Q: And the TGI (SF-295 CNS)?
A: Its TGI is 3.52 µM.

Q: And the GI50 (OVCAR-4 ovarian)?
A: Its GI50 is 1.67 µM.

Q: And the TGI (OVCAR-4 ovarian)?
A: The TGI was 3.19 µM.

Q: And the GI50 (HCT-15 colon)?
A: The GI50 was 1.8 µM.

Q: What about the TGI (HCT-15 colon) of the same molecule?
A: The TGI was 3.73 µM.

Q: And the GI50 (SF-539 CNS)?
A: The GI50 was 1.82 µM.

Q: And the TGI (SF-539 CNS)?
A: The TGI was 3.24 µM.

Q: What about the GI50 (SF-268 CNS) of the same molecule?
A: Its GI50 is 1.86 µM.

Q: And the TGI (SF-268 CNS)?
A: Its TGI is 3.96 µM.

Q: What about the GI50 (HOP-92 NSCLC) of the same molecule?
A: Its GI50 is 1.59 µM.

Q: What about the TGI (HOP-92 NSCLC) of the same molecule?
A: The TGI was 3.21 µM.

Q: What about the GI50 (OVCAR-5 ovarian) of the same molecule?
A: The GI50 was 3.03 µM.

Q: What about the TGI (OVCAR-5 ovarian) of the same molecule?
A: Its TGI is 10 µM.

Q: What about the GI50 (HT29 colon) of the same molecule?
A: Its GI50 is 1.69 µM.

Q: What about the TGI (HT29 colon) of the same molecule?
A: The TGI was 3.33 µM.

Q: And the GI50 (MALME-3M melanoma)?
A: Its GI50 is 1.93 µM.

Q: And the TGI (MALME-3M melanoma)?
A: Its TGI is 3.61 µM.

Q: What about the GI50 (T-47D breast) of the same molecule?
A: The GI50 was 1.83 µM.

Q: What about the TGI (T-47D breast) of the same molecule?
A: Its TGI is 3.83 µM.

Q: And the GI50 (IGROV1 ovarian)?
A: Its GI50 is 1.97 µM.

Q: And the TGI (IGROV1 ovarian)?
A: The TGI was 3.82 µM.

Q: And the GI50 (BT-549 breast)?
A: The GI50 was 1.83 µM.

Q: And the TGI (BT-549 breast)?
A: The TGI was 3.44 µM.

Q: What about the GI50 (RPMI-8226 leukemia) of the same molecule?
A: The GI50 was 1.99 µM.

Q: And the TGI (RPMI-8226 leukemia)?
A: Its TGI is 4.52 µM.

Q: What about the GI50 (SW-620 colon) of the same molecule?
A: Its GI50 is 1.63 µM.

Q: What about the TGI (SW-620 colon) of the same molecule?
A: Its TGI is 3.54 µM.

Q: And the GI50 (TK-10 renal)?
A: The GI50 was 1.85 µM.

Q: And the TGI (TK-10 renal)?
A: Its TGI is 3.36 µM.

Q: What about the GI50 (SR leukemia) of the same molecule?
A: Its GI50 is 1.24 µM.

Q: And the TGI (SR leukemia)?
A: The TGI was 4.57 µM.

Q: And the GI50 (NCI-H226 lung)?
A: Its GI50 is 2.42 µM.

Q: And the TGI (NCI-H226 lung)?
A: Its TGI is 6.87 µM.

Q: What about the GI50 (ACHN renal) of the same molecule?
A: The GI50 was 1.79 µM.

Q: What about the TGI (ACHN renal) of the same molecule?
A: Its TGI is 3.18 µM.

Q: And the GI50 (UACC-62 melanoma)?
A: Its GI50 is 1.74 µM.

Q: What about the TGI (UACC-62 melanoma) of the same molecule?
A: The TGI was 3.24 µM.
